Measurements from ChEMBL document CHEMBL3507680, “University of Dundee, Gates Library screen for HepG2 cell viability”.

Assay: Human HepG2 cell viability assay in 384 well format
Assay type: toxicity, cell-based
Set-up: dose 125 nL, time 70.5 hour; cytotoxicity at 70.5 h: concentration not given beside the values
Conditions: HepG2 cells, read-out: Inhibition

SMILES | cytotoxicity at 70.5 h [%]
CCCn1c(N2CCCC(C)C2)nc2c(C)nn(C)c2c1=O (configuration not stated) | -14.3
O=C(c1n[nH]cc1Cl)N1CCOCC1 | -6.1
CC(C)(CO)NCc1nn(Cc2ccccc2)nc1-c1ccccc1 | 27.2
COc1c(C)cnc(CNCC(C)C)c1C | -4.09
Cc1cccc(N2CC(c3nnc(N)s3)CC2=O)c1 (configuration not stated) | -13.7
Nc1nnc(C2CC(=O)N(c3ccccc3)C2)s1 (configuration not stated) | -16.4
Cc1ccccc1N1CC(c2nnc(N)s2)CC1=O (configuration not stated) | 3.37
Cc1ccc(C2NC(=O)c3cc(C(C)C)sc3N2)cc1 (configuration not stated) | -5.82
CCn1cc(S(=O)(=O)Nc2nc3c(s2)CCCC3)cn1 | -5.28
NC(=O)c1c(-c2ccc(Cl)cc2)csc1NC(=O)CCC(=O)O | -4.48
NC(=O)c1c(-c2ccc(Cl)cc2Cl)csc1NC(=O)CCC(=O)O | 20.5
CCCn1c(SCC(N)=O)nnc1-c1csc2c1CCCC2 | -9.81
CCC(CC)CN1CCN(CC(=O)Nc2ccc3nsnc3c2)CC1 | 3.54
CCC(CC)CN1CCN(CC(=O)Nc2cccc3nsnc23)CC1 | -15.1
CCn1c(SCC(N)=O)nnc1C(C)NC(=O)c1ccc(Cl)cc1 (configuration not stated) | 17.8
N#Cc1cc(C#N)c(SCC(=O)NCc2ccc(F)cc2)nc1N | 27.8
O=C1NC2(CCCCC2)c2nnnn2-c2ccc(Br)cc21 | -5.57
CCN1CCC2(CC1)NC(=O)c1cc(Br)ccc1-n1nnnc12 | -5.39
CC(C)N1CCC2(CC1)NC(=O)c1cc(Br)ccc1-n1nnnc12 | -4.14
Clc1ccc(-n2nnnc2C2(NCc3ccco3)CCCCC2)cc1 | -11.2
CN1CCN(c2ncc3c(=O)n(Cc4ccco4)ccc3n2)CC1 | -9.22
CCCC(=O)N1CCC(c2cc3cccnc3c(O)n2)CC1 | -5.85
Cc1cc(C)nc(C2CCN(c3ccncn3)C2)n1 (configuration not stated) | -2.27
Cc1c[nH]nc1C1CCN(C(=O)C2CCCC2)C1 (configuration not stated) | -5.07

SMILES | cytotoxicity at 70.5 h [%]
c1ccc(N2CCN(Cc3cnc(C4CCCCO4)nc3)CC2)cc1 (configuration not stated) | 4.6
CC(=O)N[C@@H]1CN(C(=O)CC2CC2)C[C@H]1O | -4.46
CN(C)c1cc(C2CCCN(C(=O)c3ccc(=O)[nH]n3)C2)ccn1 (configuration not stated) | -1.67
COc1ccccc1C1Cn2ccnc2CN1Cc1c[nH]nc1C (configuration not stated) | -1.22
Nc1nccnc1C1CN(Cc2ccc(OCC(=O)O)cc2)CCO1 (configuration not stated) | 0.531
NC(=O)c1ccccc1Oc1cnc(C2CCCN2)cn1 (configuration not stated) | -7.87
NCC(=O)N1CCC(c2cccc(Oc3ccccc3)n2)CC1 | -7.22
Nc1nccc(C2CCN(CCO)C2)n1 (configuration not stated) | -21.4
CN(C)c1nccc(C2CCN(C3CCCCC3O)CC2)n1 (configuration not stated) | 21.1
COCC(=O)N1CCC(c2cc(-c3ccc(N)nc3)cc(C)n2)CC1 | 19.1
CNc1nc(C2CCCN(C(=O)CNC(C)=O)C2)nc2c1CN(C)CC2 (configuration not stated) | 11.4
CCN1CCCC(O)(c2nc(C)c(CCOc3ccccc3F)s2)CC1 (configuration not stated) | -8.35
Cc1cc(C)n2ncc(CN3C[C@@H](O)[C@H](Oc4ccccc4)C3)c2n1 | -13.5
Cc1nnc(Nc2cccc(C3CCN(Cc4ncc[nH]4)CC3)n2)s1 | 18.8
Cc1cc(C)nc(N2CCC(c3noc(C)n3)CC2)n1 | -7.52
CN(C)c1cccc(C2CCCN2S(=O)(=O)c2cn(C)cn2)n1 (configuration not stated) | -8.98
CC(=O)N1CCC[C@@H](NCc2ccc(F)cc2)[C@@H]1c1ccc(C)s1 | -8.87
CC(C)Nc1cccc(CC2CCN(S(C)(=O)=O)CC2)n1 | 19.5
Cc1nc(C2CN(Cc3scnc3C)CCO2)cc(N(C)C)n1 (configuration not stated) | 5.46
CCOC(=O)c1n[nH]cc1-c1cncn1CC(C)n1nc(C)cc1C (configuration not stated) | -8.74
Cc1c[nH]nc1C1CCN(C(=O)Cn2cccn2)C1 (configuration not stated) | -7.3
Nc1cc(N2CCOCC(Cc3ccc4[nH]ccc4c3)C2)ncn1 (configuration not stated) | -0.988
CC(=O)Nc1nc(C2CCCN(C(=O)CN(C)C)C2)cs1 (configuration not stated) | -9.21
Nc1nccc(C2CCCCN2Cc2cccc(F)c2)n1 (configuration not stated) | -2.1

SMILES | cytotoxicity at 70.5 h [%]
CC(=O)N1CCN(CCCOc2ccccc2F)CC(C(N)=O)C1 (configuration not stated) | -13.8
CN(C)c1cncc(C2CCCN2S(=O)(=O)c2cn(C)cn2)n1 (configuration not stated) | 14.9
CC1(C2CCN(CC(N)=O)CC2)CN(Cc2ccccc2)C(=O)O1 (configuration not stated) | -5.3
COc1cccc(CC(=O)NC(C)c2nc3cccnc3n2C(C)C)c1 (configuration not stated) | -2.69
Cc1cnc(-c2nc(NC3CC3)ncc2-c2cc(C)no2)cn1 | 12
CC(=O)N1CCn2c(nnc2C2CCCCN2C(C)=O)C1 (configuration not stated) | -4.85
O=C(c1cnccn1)N1CCCC(Cc2cncc3ccccc23)C1 (configuration not stated) | -6.77
Cc1csc(NC(=O)c2cnc(C3CCCN(C)C3)cn2)n1 (configuration not stated) | -8.15
Cc1ncccc1Oc1cncc(C2CCCN2Cc2cncn2C)n1 (configuration not stated) | -2.83
CCc1nccn1-c1cncc(C2CCN(C(=O)COC)CC2)n1 | -6.24
O=C(c1cccnc1)N1CCCC1c1cc[nH]n1 (configuration not stated) | 23.9
CNc1cccc(C2CCCN(Cc3ncc[nH]3)C2)n1 (configuration not stated) | -2.87
CCc1nccn1-c1nccnc1C1CCCN(C(=O)COC)C1 (configuration not stated) | -6.06
CCn1cc(CN2CCN(CC(O)c3cc(C)ccc3C)CC2)c(C)n1 (configuration not stated) | -1.03
CCCNC(=O)c1cc(C2CCCN(Cc3ccccn3)C2)no1 (configuration not stated) | 21.2
O=C(c1cc(C2CCCN(Cc3ccccn3)C2)no1)N1CCCC1 (configuration not stated) | -1.56
CCn1cc(CN2CCN(CC(O)c3ccc(C)cc3C)CC2)c(C)n1 (configuration not stated) | -6.8
Cc1cc(-c2cnc(C3CC3)nc2CN(C)C(=O)c2ccccn2)on1 | -2.22
O=C1NC[C@]2(CC[C@@H](C(=O)N3CCC(O)CC3)CC2)Oc2ccccc21 | -4.51
O=C1CN(C(=O)[C@H]2CC[C@]3(CC2)CNC(=O)c2ccccc2O3)CCN1 | -8.28
Cn1ncc(Cl)c1C(=O)N1CCc2nc3sccc3c(=O)n2CC1 | 33.8
O=C(Cn1c(C(F)F)cc2cccnc21)NC1CCCC1 | -2.74
CCN1CCCC(NC(=O)CCn2c(C(F)F)cc3cccnc32)C1 (configuration not stated) | -4.62
CCn1ncc(S(=O)(=O)NC2(CN3CCOCC3)CCCCC2)c1C | -4.76

SMILES | cytotoxicity at 70.5 h [%]
O=C(CCn1c(C(F)F)cc2cccnc21)NC1CCCC1 | -6.41
Cc1cc(-c2cnc(C)nc2CN(C)C(=O)c2ccccn2)on1 | -3.87
CC(C)(C)NC(=O)C1(Cc2ccccc2-c2ccncc2)CCOCC1 | 27.7
CC1CCc2n[nH]c(C(=O)NCCCc3ccco3)c2C1 (configuration not stated) | -2.37
CC1CCc2n[nH]c(C(=O)NCCCc3ccccn3)c2C1 (configuration not stated) | -7.91
Cc1cc(C)n(CC(C)NC(=O)C2(c3ccc(F)cc3)CC2)n1 (configuration not stated) | -10.8
CC1(C)COCCN1C(=O)CCc1nc(-c2ccncc2)no1 | 4.51
OC1CCN(c2nc(-c3ccccc3)no2)CC1 | -11.6
Cc1cc(C)n(CC(C)NC(=O)C(C)(C)c2ccccc2F)n1 (configuration not stated) | 6.99
Cc1nc2cc(F)ccc2cc1C(=O)N1CCN(CC(C)O)CC1 (configuration not stated) | -9.69
Cc1nc2cc(F)cc(C(=O)N3CCN(CC(C)O)CC3)c2nc1C (configuration not stated) | -9.3
O=C(c1ccccn1)N1CCN(C(c2ccccc2)C(F)(F)F)CC1 (configuration not stated) | 11.9
O=C(c1cc[nH]n1)N1CCN(C(c2ccccc2)C(F)(F)F)CC1 (configuration not stated) | -8.27
CCc1ccc(C(NC(=O)CCS(C)(=O)=O)C(C)(C)C)o1 (configuration not stated) | -8.82
O=C(NC1CCc2nccn2C1)c1ccc(OCC2CC2)nc1 (configuration not stated) | -7.7
CCSCCC(C)NC(=O)Nc1cccn(C)c1=O (configuration not stated) | -10
Cc1nc2cc(F)cc(C(=O)N3CCN(CCO)CC3)c2nc1C | -5.18
Cc1ccc(S(=O)(=O)N(C)Cc2nccs2)cc1N(C)C | 6.76
c1ccc(-c2nnc3n2CCN(c2nc(C4CC4)ns2)C3)cc1 | -8
CCc1nsc(N2CCn3c(nnc3-c3ccccc3)C2)n1 | -4.9
N#Cc1cc(F)ccc1NCc1ccc(Cn2cncn2)cc1 | -3.41
COc1ccc(-c2noc(CCC(=O)N3CCOCC3(C)C)n2)cc1 | -3.78
CCC(C)(C)NC(=O)c1scnc1Cl | 12.7
CCc1noc(C)c1C(=O)NCCCC(CC)(CC)C1OCCO1 | -5.2

SMILES | cytotoxicity at 70.5 h [%]
CCc1ccc(C(NC(=O)CN(C)S(C)(=O)=O)C(C)(C)C)o1 (configuration not stated) | -7.8
FC(F)(F)CCN(Cc1ccon1)C1CCC1 | -7.34
COc1ccccc1CC(C)N(C)CCS(C)(=O)=O (configuration not stated) | -14.1
CCCC(=O)N(C)Cc1cccc(OC(C)C)c1 | 9.69
CN(Cc1cccc(OC(F)(F)F)c1)C(=O)Cc1ccon1 | -13.6
CNS(=O)(=O)c1cccc(CNCc2ccsc2)c1 | -1.74
CCCc1c(C(=O)N2CCN(c3nccc(OC)n3)CC2)cnn1C | -5.72
COCC(C)N1CCN(CCc2ccc3c(c2)CCO3)CC1 (configuration not stated) | 21.8
O=C(NCC(F)(F)F)c1ccncc1 | 12.7
O=C(COCCOc1ccccc1)NC1CCN(c2ccccn2)CC1 | -12.1
CC(C)(C)C(=O)NCC(=O)Nc1cccnc1 | -6.42
Cn1nc(C(=O)NC2(c3ccc(Cl)cc3)CCCC2)ccc1=O | 24.7
CCc1nnc2n1CCN(C(C(=O)NC1CC1)c1ccc(F)cc1)C2 (configuration not stated) | -15.2
CNC(=O)c1cc(C2CCCN2)n[nH]1 (configuration not stated) | -3.32
CCc1ncc(CN[C@@H]2CCCN(C(C)=O)[C@H]2c2ccc(C)s2)cn1 | -6.59
Cc1csc(NC(=O)c2cnc(C3CCCN3)cn2)n1 (configuration not stated) | -13.1
Cc1csc(NC(=O)c2cnc(C3CCNCC3)cn2)n1 | -11.9
CN(C)c1ncc(C2Nc3cc(Cl)ccc3C3=NCCCN32)cn1 (configuration not stated) | -5.74
CC(C)Nc1nc(O)cc(C2CC(=O)N(Cc3ccccn3)C2)n1 (configuration not stated) | -5.33
CNc1cc(C2CCCN2C(=O)c2ccc(=O)[nH]n2)ccn1 (configuration not stated) | -2.78
CC(C)Nc1cccc(CC2CCN(C)C2)n1 (configuration not stated) | -5.89
